{"source": "patent US8471061B2", "about": "(priority 2004, dated 2013)", "key": {"[1]": {"test_system": "Chlorella sp.", "test": "Culturing of plankton", "assay_type": "cell-based", "conditions": "1 mM additive", "experimental": "5-Aminolevulinic acid nitrate was added, to a concentration of 1 mM (194 ppm), to 100 ml of a sterilized culture shown in Table 17 (components of the culture), and a Chlorella sp. was inoculated therein and cultured on a reciprocal shaker at 30° C. under aerobic and dark conditions to measure the amount of cells (OD 660).\n5-Aminolevulinic acid hydrochloride was added, to a concentration of 1 mM (168 ppm), to 100 ml of the sterilized culture shown in Table 17 (components of the culture), and the Chlorella sp. was inoculated therein and cultured on a reciprocal shaker at 30° C. under aerobic and dark conditions to measure the amount of cells (OD 660).\nThe Chlorella sp. was inoculated into 100 ml of the sterilized culture shown in Table 17 (components of the culture) and cultured on a reciprocal shaker at 30° C. under aerobic and dark conditions to measure the amount of cells (OD 660)."}, "[2]": {"test": "Degradation test by sterilization", "assay_type": "physicochemical", "conditions": "50 mg heat sterilized, 121° C., 20 minutes, 1.5 kgf/cm^2", "experimental": "Firstly, 50 mg of 5-aminolevulinic acid p-toluenesulfonate or 5-aminolevulinic acid hydrochloride was heat sterilized (121° C., 20 minutes, 1.5 kgf/cm^2). After confirming that there is no change in weight before and after the sterilization, degree of degradation of 5-aminolevulinic acid before and after the sterilization was verified by the method described in a reference (Clin. Chem., 36/8, 1494 (1990))."}, "[3]": {"test_system": "Salmonella typhimurium TA 100, TA 98, TA 1535 and TA 1537 and Escherichia coli WP2 uvrA", "test": "Mutagenicity test (back mutation test) using microorganisms, all strains", "assay_type": "cell-based", "experimental": "A test was carried out in accordance with the “Standard of Mutagenicity Tests Using Microorganisms” (Ministry of Labor Notification No. 77, 1988) (partial revision by Ministry of Labor Notification No. 67, 1997) and “Regarding the Tests Concerning Novel Chemical Substances and the like” (dated Nov. 21, 2003: Yaku-Shoku-Hatsu No. 1121002, 2003.11.13 Sei-Kyoku, No. 2, Kan-Ho-Ki-Hatsu No. 031121002). […] In the measurement, an inner area of about 80 mm in diameter of a plate of 86 mm in diameter (84 mm in inner diameter) was measured using an automatic colony analyzer (CA-11: manufactured by System Science), and calculated by carrying out area correction and counting loss correction using a personal computer. However, since reliability of the automatic colony analyzer is reduced when the number of colonies is 1,500 or more, 5 points in the plate were manually measured under the stereoscopic microscope to carry out area correction of the average value. […]"}, "[4]": {"test_system": "Salmonella typhimurium TA 98", "test": "Back mutation test, TA98", "assay_type": "cell-based", "experimental": "A test was carried out in accordance with the “Standard of Mutagenicity Tests Using Microorganisms” (Ministry of Labor Notification No. 77, 1988) (partial revision by Ministry of Labor Notification No. 67, 1997) and “Regarding the Tests Concerning Novel Chemical Substances and the like” (dated Nov. 21, 2003: Yaku-Shoku-Hatsu No. 1121002, 2003.11.13 Sei-Kyoku, No. 2, Kan-Ho-Ki-Hatsu No. 031121002). To 0.1 ml of a solution prepared by dissolving 5% (w/v) of 5-aminolevulinic acid phosphate in distilled water (Wako Pure Chemical Industries), 0.5 ml of 0.1 M sodium-phosphate buffer (pH 7.4) (0.5 ml S9 mix in the case of metabolism activation test) was added, and 0.1 ml of each test strain suspension (5 strains of histidine-less Salmonella typhimurium TA 100, TA 98, TA 1535 and TA 1537 and tryptophan-less Escherichia coli WP2 uvrA were used (Japan Bioassay Research Center)) was further added thereto, followed by pre-incubation at 37° C. for 20 minutes while shaking. After completion of the culturing, 2.0 ml of top agar kept at 45° C. in advance was added thereto and layered on a minimum glucose agar plate medium. In this case, 2 plates were arranged for each dosage. However, 3 plates were arranged for a solvent control (negative control). […] In the measurement, an inner area of about 80 mm in diameter of a plate of 86 mm in diameter (84 mm in inner diameter) was measured using an automatic colony analyzer (CA-11: manufactured by System Science), and calculated by carrying out area correction and counting loss correction using a personal computer. However, since reliability of the automatic colony analyzer is reduced when the number of colonies is 1,500 or more, 5 points in the plate were manually measured under the stereoscopic microscope to carry out area correction of the average value. A dosage setting test was carried out on 7 dosages diluted at a common ratio of 4, using a dosage of 5,000 μg/plate as the maximum which is the maximum dosage defined by the guideline. […] Growth inhibition of the strains by this substance to be tested was not found. […] Thus, this test was carried out by setting 5 dosages diluted at a common ratio of 2, using a dosage of 5,000 μg/plate as the maximum which is the maximum dosage defined by the guideline."}}, "note": "Several values for one entry are separate records, joined by “and”; a condition that tells them apart may be missing. Equal entries are not always repeated.", "data": [{"smiles": "Cl.NCC(=O)CCC(=O)O", "note": "[5-aminolevulinic acid hydrochloride, reference compound]", "values": [{"measurement": "amount of cells: OD 660 nm", "setting": "[1]; Culture time 0 day", "value": 1.8}, {"measurement": "amount of cells: OD 660 nm", "setting": "[1]; Culture time 1 day", "value": 6.3}, {"measurement": "amount of cells: OD 660 nm", "setting": "[1]; Culture time 2 day", "value": 12.5}, {"measurement": "amount of cells: OD 660 nm", "setting": "[1]; Culture time 3 day", "value": 14.8}, {"measurement": "Degradation degree (%)", "setting": "[2]", "value": 6.6, "unit": "%"}]}, {"smiles": "NCC(=O)CCC(=O)O.O=P(O)(O)O", "note": "[5-aminolevulinic acid phosphate, 5-aminolevulinic Acid Phosphate]", "values": [{"measurement": "mutation inducing ability", "setting": "[3]", "value": "does not have the mutation inducing ability"}, {"measurement": "number of back mutation, mean (in parentheses)", "setting": "[4]; S9 Mix(+), 313 μg/plate", "value": "(12) colonies/plate"}, {"measurement": "number of back mutation, single plates", "setting": "[4]; S9 Mix(+), 313 μg/plate, Phosphate", "value": "13 colonies/plate and 11 colonies/plate"}, {"measurement": "number of back mutation, mean (in parentheses)", "setting": "[4]; S9 Mix(+), 625 μg/plate", "value": "(9) colonies/plate"}, {"measurement": "number of back mutation, single plates", "setting": "[4]; S9 Mix(+), 625 μg/plate", "value": 9, "unit": "colonies/plate"}, {"measurement": "number of back mutation, mean (in parentheses)", "setting": "[4]; S9 Mix(+), 1250 μg/plate", "value": "(21) colonies/plate"}, {"measurement": "number of back mutation, single plates", "setting": "[4]; S9 Mix(+), 1250 μg/plate, Phosphate", "value": "14 colonies/plate and 27 colonies/plate"}, {"measurement": "number of back mutation, mean (in parentheses)", "setting": "[4]; S9 Mix(+), 2500 μg/plate", "value": "(11) colonies/plate"}, {"measurement": "number of back mutation, mean (in parentheses)", "setting": "[4]; S9 Mix(+), 5000 μg/plate", "value": "(21) colonies/plate"}, {"measurement": "number of back mutation, single plates", "setting": "[4]; S9 Mix(+), 5000 μg/plate, Phosphate", "value": "20 colonies/plate and 21 colonies/plate"}, {"measurement": "number of back mutation, mean (in parentheses)", "setting": "[4]; S9 Mix(−), 313 μg/plate", "value": "(8) colonies/plate"}, {"measurement": "number of back mutation, single plates", "setting": "[4]; S9 Mix(−), 313 μg/plate, Phosphate", "value": "9 colonies/plate and 7 colonies/plate"}, {"measurement": "number of back mutation, mean (in parentheses)", "setting": "[4]; S9 Mix(−), 625 μg/plate", "value": "(9) colonies/plate"}, {"measurement": "number of back mutation, mean (in parentheses)", "setting": "[4]; S9 Mix(−), 1250 μg/plate", "value": "(6) colonies/plate"}, {"measurement": "number of back mutation, mean (in parentheses)", "setting": "[4]; S9 Mix(−), 2500 μg/plate", "value": "(16) colonies/plate"}, {"measurement": "number of back mutation, single plates", "setting": "[4]; S9 Mix(−), 2500 μg/plate, Phosphate", "value": "15 colonies/plate and 17 colonies/plate"}, {"measurement": "number of back mutation, mean (in parentheses)", "setting": "[4]; S9 Mix(−), 5000 μg/plate", "value": "(8) colonies/plate"}, {"measurement": "number of back mutation, single plates", "setting": "[4]; S9 Mix(−), 5000 μg/plate, Phosphate", "value": "9 colonies/plate and 7 colonies/plate"}]}]}
